Data on 26 compounds can be found in ChEMBL document CHEMBL1136817, “1,3,4-Trisubstituted pyrrolidine CCR5 receptor antagonists: modifications of the arylpropylpiperidine side chains” (Bioorg Med Chem Lett, 2003).

Where only a bound is given, the exact number is not on record here.

The target of series [1] is T1, C-C chemokine receptor type 5 (Homo sapiens, UniProt P51681). The series is described as follows: (§1) Ability to displace [125I]- labeled MIP-1alpha from CCR5 receptor expressed on CHO cell membrane. It is filed as cell membranes.
Target sequence in this assay (P51681 whole entry): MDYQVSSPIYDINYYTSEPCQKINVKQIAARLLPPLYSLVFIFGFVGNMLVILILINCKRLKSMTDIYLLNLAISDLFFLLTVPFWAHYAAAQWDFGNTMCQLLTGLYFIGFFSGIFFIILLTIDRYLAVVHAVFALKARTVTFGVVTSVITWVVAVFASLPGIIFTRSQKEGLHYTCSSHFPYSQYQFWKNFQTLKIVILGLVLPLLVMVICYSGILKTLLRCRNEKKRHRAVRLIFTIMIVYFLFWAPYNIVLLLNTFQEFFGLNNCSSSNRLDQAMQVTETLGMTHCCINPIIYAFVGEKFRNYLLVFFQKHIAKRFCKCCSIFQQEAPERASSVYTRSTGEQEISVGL
Series [2] relates to Human immunodeficiency virus 1. The series is described as follows: In vitro antiviral activity against HIV-1 (BAL) in HeLa cells. The series is classed as functional.
The nature of series [3]: Volume of distribution was evaluated in rat. It is filed as ADME, organism-based. The settings on record: in vivo, read-out: Vdss.
The nature of series [4]: Oral bioavailability in rat. The series is classed as ADME, organism-based. The conditions noted are these: in vivo.
The nature of series [5]: Plasma clearance was evaluated in rat. It is filed as ADME, organism-based. The conditions noted are these: read-out: Clp.
The nature of series [6]: Half life was evaluated in rat. It is filed as ADME, organism-based. The settings on record: in vivo.
The nature of series [7]: Half life was evaluated in rhesus. It is filed as ADME. The conditions noted are these: cercopithecidae, in vivo.
A short description of series [8]: Volume of distribution was evaluated in dog. The series is classed as ADME, organism-based, Canis lupus familiaris. The settings on record: in vivo, read-out: Vdss.
A short description of series [9]: Oral bioavailability in Rhesus monkey. The settings on record: in vivo. It is filed as ADME, organism-based, Macaca mulatta.
Series [10] can be described thus: Plasma clearance was evaluated in rhesus. The series is classed as ADME, organism-based. The conditions noted are these: cercopithecidae, read-out: Clp.
A short description of series [11]: Volume of distribution was evaluated in rhesus. It is filed as ADME, organism-based. The conditions noted are these: cercopithecidae, in vivo; read-out: Vdss.
Series [12] is described as follows: Oral bioavailability in dog. It is filed as ADME, organism-based, Canis lupus familiaris. The conditions noted are these: in vivo.
Series [13] is described as follows: Half life was evaluated in dog. It is filed as ADME, organism-based, Canis lupus familiaris. The conditions noted are these: in vivo.
A short description of series [14]: Plasma clearance was evaluated in dog. It is filed as ADME, organism-based, Canis lupus familiaris. The conditions noted are these: read-out: Clp.
The nature of series [15]: Inhibitory concentration measured by Peripheral blood mononuclear cells (BAL) viral assay. The conditions noted are these: Homo sapiens. The series is classed as functional.
Series [16] in a line: Inhibitory concentration by Peripheral blood mononuclear cells assay. The series is classed as functional. The conditions noted are these: Homo sapiens.
Series [17] is described as follows: Oral bioavailability. It is filed as ADME, organism-based. The settings on record: rat, in vivo.
Series [18] deals with HeLa. The series can be described thus: Inhibitory concentration obtained in the HeLa cell anti infectivity assay versus BAL strain. It is filed as functional. The settings on record: Homo sapiens.
Series [19] is described as follows: Inhibitory concentration measured by peripheral blood mononuclear cells (BAL) viral assay. It is filed as functional, Homo sapiens.
For series [20], the target named is T1, C-C chemokine receptor type 5. Described as §1. It is filed as cell membranes. This is another data set of the same source.
Target sequence in this assay (P51681 whole entry, looked up): as the sequence (P51681 whole entry) above
The mark [21] stands for this setting: Human immunodeficiency virus 1, HeLa.

For the compound `O=C(O)[C@@H](CC1CCC1)N1C[C@H](CN2CCC(CC[S+]([O-])c3ccc(F)cc3)CC2)[C@@H](c2cccc(F)c2)C1` (stereo in doubt; 31), in series [1], the IC50 was 0.4 nM. For the same compound, in series [2], the 90% effect level (IC90) was put at 0.8 nM.
`O=C(O)C(CCC1CCN(C[C@H]2CN([C@H](CC3CC3)C(=O)O)C[C@@H]2c2cccc(F)c2)CC1)c1ccc(F)cc1` (stereo partly drawn): the IC50 in series [1] is 51 nM.
Consider `CC(C)[C@H](C(=O)O)N1C[C@H](CN2CCC(CCC(F)(F)c3ccc(F)cc3)CC2)[C@@H](c2cccc(F)c2)C1`, for which the IC50 in [1] turned out to be 0.5 nM. In series [2] (setting [21]), this compound registered an IC90 of 33 nM.
With `CC(O)(CCC1CCN(C[C@H]2CN([C@H](CC3CC3)C(=O)O)C[C@@H]2c2cccc(F)c2)CC1)c1ccc(F)cc1` (stereo partly drawn), the Vd in [3] was found to be 3.9 L/kg. Further, the bioavailability in series [4] was 10%. Moreover, the clearance in series [5] worked out at 5.4 mL/min/kg. In series [6], this compound showed a half-life of 1.6 h. The compound also registered an IC50 in series [1] of 1.6 nM. For the same compound, in [2] (setting [21]), the 90% effect level (IC90) was put at 1.2 nM.
`O=C(O)[C@@H](CC1CCC1)N1C[C@H](CN2CCC(CCCc3ccc(C(F)(F)F)cc3)CC2)[C@@H](c2cccc(F)c2)C1` registered an IC50 in series [1] of 0.2 nM. For the same compound, in series [2] (setting [21]), the IC90 is 11 nM.
The compound `O=C(O)[C@@H](CC1CCC1)N1CC(CN2CCC(CCC(F)(F)c3ccc(F)cc3)CC2)[C@@H](c2ccccc2)C1` (single isomer, unassigned) returned an IC50 in series [1] of 0.2 nM.
With `O=C(O)[C@@H](CC1CC1)N1CC(CN2CCC(CCC(F)(F)c3ccc(F)cc3)CC2)[C@@H](c2cccc(F)c2)C1` (single isomer, unassigned), the half-life is 5.6 h in series [7], 2.4 h in series [13] and 7.5 h in series [6]. In addition, the Vd in series [3] was 6.1 L/kg; in series [8], 3.7 L/kg; in series [11] it was 2.8 L/kg. Besides, the figures for the bioavailability in series [9], in series [4] and in series [12] were 8%, 3.9% and 37%, respectively. For the same compound, the clearance was 17.6 mL/min/kg in series [10], 14 mL/min/kg in series [5] and 24 mL/min/kg in series [14]. Further, the IC50 in series [1] came out at 0.06 nM. This compound also displayed an IC90 in series [2] (setting [21]) of 0.4 nM. Besides, the figures for the IC95 in [15] and in [16] were 12 nM and under 20 nM, respectively.
Regarding `O=C(O)[C@@H](CC1CCC1)N1C[C@H](CN2CCC(CCSc3ccc(F)cc3)CC2)[C@@H](c2cccc(F)c2)C1`, the IC50 in [1] amounted to 0.1 nM. Besides, the IC90 in series [2] (setting [21]) turned out to be 4 nM.
In turn, `COC(=O)C(CCC1CCN(C[C@H]2CN([C@H](CC3CC3)C(=O)O)C[C@@H]2c2cccc(F)c2)CC1)c1ccc(F)cc1` (stereo partly drawn) registered an IC50 in series [1] of 1.5 nM. This compound also returned an IC90 in series [2] (setting [21]) of 33 nM.
`CC(C)[C@H](C(=O)O)N1C[C@H](CN2CCC(CCSc3ccc(F)cc3)CC2)[C@@H](c2cccc(F)c2)C1` had an IC50 in series [1] of 0.8 nM. Also, the IC90 in series [2] (setting [21]) is 100 nM.
As for `O=C(O)[C@@H](CC1CC1)N1C[C@H](CN2CCC(CCC(O)c3ccc(F)cc3)CC2)[C@@H](c2cccc(F)c2)C1` (stereo partly drawn), in series [3], the Vd is 3.3 L/kg. In series [4], the bioavailability amounted to 2%. For the same compound, in [5], the clearance was 76 mL/min/kg. This compound also showed a half-life in [6] of 0.9 h. The half-inhibitory concentration (IC50) in series [1] was found to be 0.4 nM. This compound came in with an IC90 in series [2] (setting [21]) of 1.2 nM. In series [15], this compound came in with an IC95 of 15 nM.
As to `N#Cc1ccc(CCCC2CCN(C[C@H]3CN([C@H](CC4CCC4)C(=O)O)C[C@@H]3c3cccc(F)c3)CC2)cc1`, the clearance in series [5] was 47.8 mL/min/kg. The same compound showed a bioavailability in series [17] of 7%. This compound also showed a half-life in series [6] of 1 h. This compound also gave an IC50 in series [1] of 0.3 nM. In addition, the IC90 in [2] (setting [21]) was 0.4 nM.
`O=C(O)[C@@H](CC1CCC1)N1C[C@H](CN2CCC(CCCc3ccccc3)CC2)[C@@H](c2ccccc2)C1` yielded an IC90 in [18] of 1.2 nM. The IC50 in series [19] was under 8 nM.
Turning to `COP(=O)(CCC1CCN(C[C@H]2CN([C@H](CC3CC3)C(=O)O)C[C@@H]2c2cccc(F)c2)CC1)c1ccccc1` (stereo partly drawn), the IC50 in series [1] was 19 nM.
In turn, `O=C(O)[C@@H](CC1CC1)N1C[C@H](CN2CCC(CCP(=O)(O)c3ccccc3)CC2)[C@@H](c2cccc(F)c2)C1` registered an IC50 in series [1] of 1000 nM.
Turning to `O=C(O)[C@@H](C1CCCCC1)N1C[C@H](CN2CCC(CCC(F)(F)c3ccc(F)cc3)CC2)[C@@H](c2ccccc2)C1`, the 50% inhibitory concentration (IC50) in series [1] worked out at 0.3 nM. In [2] (setting [21]), this compound came in with an IC90 of 4 nM.
On to `O=C(O)[C@@H](CC1CCC1)N1CC(CN2CCC(CCC(F)(F)c3ccc(F)cc3)CC2)[C@@H](c2cccc(F)c2)C1` (single isomer, unassigned), for which the half-life in series [7] was 2.4 h; in series [6], 3.1 h. In addition, the figures for the Vd in series [3] and in series [11] were 2.2 L/kg and 1.8 L/kg, respectively. In addition, the bioavailability is 12% in [9] and 32% in series [4]. Besides, the clearance amounted to 11 mL/min/kg in series [10] and 18 mL/min/kg in series [5]. In series [1], this compound had an IC50 of 0.3 nM. For the same compound, in series [2] (setting [21]), the IC90 came to 1.6 nM. The compound further had an IC95 in series [15] of 18 nM.
Take `O=C(O)[C@@H](CC1CCC1)N1C[C@H](CN2CCC(CCCc3ccc(F)cc3)CC2)[C@@H](c2cccc(F)c2)C1`: the clearance in [5] was 32 mL/min/kg. Moreover, the bioavailability in series [17] came to 16%. In [6], this compound gave a half-life of 3.4 h. Besides, the IC50 in series [1] stood at 0.8 nM. For the same compound, in [2] (setting [21]), the IC90 was determined as 2 nM.
Regarding `O=C(O)[C@@H](CC1CC1)N1C[C@H](CN2CCC(CCC(CO)c3ccc(F)cc3)CC2)[C@@H](c2cccc(F)c2)C1` (stereo partly drawn), the concentration for half-maximal inhibition (IC50) in [1] came out at 4.8 nM. The same compound showed an IC90 in series [2] (setting [21]) of 33 nM.
For `O=C(O)[C@@H](CC1CCC1)N1C[C@H](CN2CCC(CC[S+]([O-])c3ccc(F)cc3)CC2)[C@@H](c2cccc(F)c2)C1` (stereo in doubt; 30), the IC50 in [1] was 0.5 nM. This compound also displayed an IC90 in [2] of 33 nM.
In turn, `O=C(O)[C@@H](CC1CC1)N1C[C@H](CN2CCC(CCC3(c4ccc(F)cc4)OCCO3)CC2)[C@@H](c2cccc(F)c2)C1` returned an IC50 in series [1] of 3.7 nM. This compound also yielded an IC90 in series [2] (setting [21]) of 100 nM.
`CC(C)[C@H](C(=O)O)N1C[C@H](CN2CCC(CCS(=O)(=O)c3ccc(F)cc3)CC2)[C@@H](c2cccc(F)c2)C1` registered an IC50 in series [1] of 0.9 nM. The same compound registered an IC90 in series [2] (setting [21]) of 4 nM.
In series [1], `O=C(CCC1CCN(C[C@H]2CN([C@@H](C(=O)O)C3CCCCC3)C[C@@H]2c2ccccc2)CC1)c1ccc(F)cc1` had an IC50 of 1.6 nM. For the same compound, the IC90 in [2] (setting [21]) was found to be 100 nM.
In series [1], `O=C(O)[C@@H](C1CCCCC1)N1C[C@H](CN2CCC(CCS(=O)(=O)c3ccc(F)cc3)CC2)[C@@H](c2cccc(F)c2)C1` had an IC50 of 1.1 nM. For the same compound, it took 0.4 nM to reach the 90% level in [2] (setting [21]) (IC90).
As to `O=C(O)[C@@H](CC1CCC1)N1C[C@H](CN2CCC(CCS(=O)(=O)c3ccc(F)cc3)CC2)[C@@H](c2cccc(F)c2)C1`, in series [3], the Vd came out at 1.9 L/kg. In [4], this compound returned a bioavailability of 16%. In addition, the clearance in series [5] is 78 mL/min/kg. The same compound had a half-life in series [6] of 0.8 h. Also, in series [20], the IC95 was 0.2 nM. Also, the IC90 in series [2] (setting [21]) was determined as 0.4 nM. Also, the IC50 in series [19] is 1.6 nM.
With `O=C(O)[C@@H](CC1CCC1)N1C[C@H](CN2CCC(CCCc3ccccc3)CC2)[C@@H](c2cccc(F)c2)C1`, the clearance in series [5] was found to be 32 mL/min/kg. Further, the bioavailability in series [17] is 24%. This compound gave a half-life in [6] of 3.4 h. The same compound gave an IC50 in series [1] of 0.5 nM.
